“Also recorded” adds a separate entry of the source. Where no end group is shown, it is not given here.
Key:
p6 HEV [1] = assay: ELISA of viral capsid protein ORF2 in viruses released to culture medium; type: cell-based; settings: 10 μM CP11 treated samples; Huh7 cells
Experimental: (§1) For estimation of the amount of virus released to the culture medium, medium from the above samples were collected and clarified by centrifugation at 7197×g, 4° C. for 15 minutes. 8% PEG (polyethylene glycol) 6000 and 0.4 M NaCl (final concentration) was added to the clarified samples and the mixture was incubated at 0° C. for 16 hours, followed by centrifugation at 20,000×g for 30 minutes. The pellet was resuspended in PBS and RNA was isolated using QIAamp Viral RNA Mini kit. Intracellular RNA was isolated using TRI reagent (MRC, Ohio, USA), following manufactures protocol.
An ELISA was standardized using purified recombinant ORF2 protein (112-608aa region) as the antigen and a rabbit polyclonal anti-ORF2 antibody, which was earlier generated and characterized in our laboratory (48). Specificity of the assay was monitored by including appropriate controls such as rabbit preimmune serum and competition with the peptide, which was used to generate the antibody. […]
For ELISA mediated quantification of p6 HEV present in the culture medium, PEG 6000 precipitated virus was resuspended in PBS and coated onto the ELISA plate overnight at 4° C. […]

ORF4 and ORF3 = assay: In vitro His-pull down assay, ORF3-ORF4 interaction; type: binding, HEV; settings: 1 μM in the reaction mix; western blot
Experimental: (§2) pGBKT7 RdRp, TSG101 and ORF4 plasmids, in which coding sequence for RdRp, TSG101 and ORF4 is cloned under the control of the T7 promoter along with a N-terminal myc epitope tag was used for in vitro production of HEV RdRp, ORF4 and human TSG101 proteins. A coupled in vitro transcription-translation kit (TNT T7 kit) was used, following manufactures guidelines (Promega, Wis., USA). Aliquots of the TNT expressed proteins were mixed with 2× Laemelli buffer [125 mM Tris (pH 6.8), 4% SDS, 20% glycerol, 100 mM DTT and 0.02% bromophenol blue], incubated at 950 C for 5 minutes, resolved by SDS PAGE and western blotted with anti-myc antibody to confirm protein expression.
An in vitro His-pull down assay was performed to monitor whether cyclic peptide inhibits the interaction between HEV ORF3 and human TSG101 proteins. His tagged ORF3 protein was purified from E. coli BL21 (DE3) following previously described protocols (50). […]
Empty pGBKT7 vector was translated in parallel (denoted as mock lysate) to rule out non-specific cross reactivity of myc antibody with proteins present in the rabbit reticulocyte lysate. […] Two non-specific bands were detected in all samples (denoted by *). […]

p6 HEV [2] = assay: QRT-PCR of intracellular p6 HEV sense strand RNA; type: cell-based; settings: 10 μM CP11 every alternate day for 6 days; Huh7 cells; normalized to GAPDH
Experimental: (§3) The genomic RNAs of p6 HEV and p6 HEV-Luc were synthesized in vitro and size/integrity was monitored by formaldehyde agarose gel electrophoresis. ORF4-Huh7 cell line were prepared as reported (48) and maintained in Dulbecco's modified eagle medium containing 10% fetal calf serum, 50 IU/ml penicillin and streptomycin in 5% CO2. 200 μg/ml hygromycin was added to the cells during routine maintenance. Cells were then electroporated with genomic RNAs of p6 HEV and p6 HEV-Luc in a 4 mm cuvette at 200 Volt, 950 μF and infinite resistance. Electroporated cells were maintained in complete media for 5 days prior to the treatment with CP11.
On 6th day post-electroporation/post-infection, HEV infection model was treated every alternate day with 10 μM of CP11 for 6 days followed by measurement of cell viability, quantification of replication of the viral genome and release of the progeny viruses. […]
For measuring levels of p6 HEV sense RNA and host GAPDH RNA, cDNA was synthesized using random hexamers and Superscript III reverse transcriptase. For subsequent quantitative real time, FP of sequence “[…]” (SEQ ID NO:3) and RP of sequence “accgggacagcgtgga” (SEQ ID NO:4) were used for p6 HEV sense and FP of sequence “[…]” (SEQ ID NO:5) and RP of sequence “[…]” (SEQ ID NO:6) were used for host GAPDH RNA.

[3] = target: T1, HEV ORF3 and human TSG101 proteins (Homo sapiens, UniProt Q99816); assay: In vitro His-pull down assay, ORF3-TSG101 interaction; type: binding; settings: for interaction between ORF3 and TSG101: western blot
T1 construct: made in house; host or cells: ORF3-his: E. coli BL21 (DE3); TSG101-myc: coupled in vitro transcription-translation (TNT T7 kit, Promega; rabbit reticulocyte lysate) from pGBKT7 TSG101
T1 sequence (Q99816 1-390): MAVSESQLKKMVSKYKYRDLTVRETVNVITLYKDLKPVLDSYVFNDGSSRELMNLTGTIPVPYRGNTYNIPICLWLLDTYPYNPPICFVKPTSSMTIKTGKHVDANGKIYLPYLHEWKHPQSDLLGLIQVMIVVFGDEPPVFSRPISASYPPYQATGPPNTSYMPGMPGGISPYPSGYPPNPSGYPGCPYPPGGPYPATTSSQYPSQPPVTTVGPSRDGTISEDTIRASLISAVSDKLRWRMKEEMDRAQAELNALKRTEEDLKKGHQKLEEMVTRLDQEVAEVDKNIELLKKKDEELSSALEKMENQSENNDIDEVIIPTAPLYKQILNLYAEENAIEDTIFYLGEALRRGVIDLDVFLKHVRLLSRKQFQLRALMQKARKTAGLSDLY
Experimental: as §2
An in vitro His-pull down assay was performed to monitor whether cyclic peptide inhibits the interaction between HEV ORF3 and human TSG101 proteins. His tagged ORF3 protein was purified from E. coli BL21 (DE3) following previously described protocols (50). Ni-NTA super flow agarose (Thermo Scientific, Massachusetts, USA) bound ORF3-his was equally aliquoted into separate 1.5 ml tubes followed by addition of TNT generated mock lysate, RdRp-myc lysate, TSG101-myc lysate, ORF4-myc lysate and CP11 (1 μM or 10 μM) in the required combinations in phosphate buffered saline (PBS; 10 mM PO43-, 137 mM NaCl, 2.7 mM KCl) supplemented with protease inhibitor cocktail. Samples were incubated on a flip flop shaker at 4° C. for 1 hour, followed by three washes in PBS. 30p1 of 2× Laemelli buffer was added to the beads and incubated at 950 C for 5 minutes. Aliquots of the eluted proteins were resolved by SDS-PAGE and western blotting was done using anti-myc and anti-ORF3 antibodies.
Empty pGBKT7 vector was translated in parallel (denoted as mock lysate) to rule out non-specific cross reactivity of myc antibody with proteins present in the rabbit reticulocyte lysate. RdRp, TSG101 and ORF4 plasmid containing samples produced bands corresponding to their expected size (FIG. 1B). Two non-specific bands were detected in all samples (denoted by *). […]

g-1 HEV = assay: Release of g-1 HEV from infected ORF4-Huh7 cells; type: cell-based; settings: g-1 HEV clinical isolate, 10 μM CP11 every alternate day for 6 days
Experimental: For infection studies, the HEV infection model was prepared by infecting 4×10^5 ORF4-Huh7 cells with 8×10^6 genome copies of the g-1 HEV clinical isolate for one hour, followed by three times washing of infected cells in PBS and maintenance in complete media for 5 days prior to treatment with CP11.
(§4) On 6th day post-electroporation/post-infection, HEV infection model was treated every alternate day with 10 μM of CP11 for 6 days followed by measurement of cell viability, quantification of replication of the viral genome and release of the progeny viruses.
as §1

p6 HEV-Luc replicon = p6 HEV-Luc replicon Gaussia luciferase assay; type: cell-based; settings: 10 μM CP11 for 48 hours; Huh7 cells; normalized to cell viability
Experimental: Possible effect of CP11 on HEV replication was investigated using a Huh7 cell-based model of p6 HEV replicon expressing luciferase. Luciferase assay was done through well-known methods. Briefly, Huh7 cells were electroporated with in vitro synthesized capped genomic RNA of p6 HEV-Luc and maintained in complete media for 5 days prior to the treatment with the cyclic peptide. 6th day post electroporation, 10 μM CP11 was added for 48 hours. Gaussia luciferase activity in the culture media was measured using Renilla luciferase assay kit (Promega, Wisconsin, USA). Luciferase values were normalized to that of the cell viability assay, and plotted as mean±SEM.

[4] = test system: p6 HEV expressing Huh7 cells; assay: MTT cell viability assay; type: cell-based, human; settings: 10 μM CP11 every alternate day for 6 days
Experimental: as §3, §4
Cell viability was measured by MTT [3-(4,5-dimethyl-2-thiazolyl)-2,5-diphenyl-2H-tetrazolium bromide] assay using cell titer 96 non-radioactive cell proliferation assay kit.

CP11: Peptide 11 (CGWIYWNV; SEQ ID NO:1), cyclized and conjugated with the linear Tat peptide (CGRKKRRQRRRPPQ; SEQ ID NO:2) (also: peptide 11 cyclized, mode not given here, conjugated to linear Tat peptide, linkage not given here)
ORF2 level in PEG 6000 precipitated virus from culture medium (p6 HEV [1]): significantly less | interaction between ORF4 and ORF3 (ORF4 and ORF3): remains unaffected | viral sense strand RNA level in cells (p6 HEV [2]): significant increase | interaction between ORF3 and TSG101 ([3]; 1 μM in the reaction mix): significantly reduced | interaction between ORF3 and TSG101 ([3]; 10 μM of CP11 in the reaction mixture): completely inhibited | inhibition of the interaction between ORF3 and TSG101 proteins, compared with other peptides ([3]; out of several cyclic peptides screened): most efficiently | block of release of g-1 HEV (g-1 HEV): approximately 90% | luciferase activity (viral replication/RNA stability) (p6 HEV-Luc replicon): no effect | cytotoxic effect (cell viability, MTT) [4]: ruled out the possible cytotoxic effect; also recorded: without showing any cytotoxicity

Reference: patent publication US20200115417A1, “A CYCLIC PEPTIDE AND PHARMACEUTICAL COMPOSITION COMPRISING THE SAME FOR INHIBITING PROLIFERATION OF HEV” (priority 2018, published 2020)
